From the supplement of paper PMC13207355

Tests used:
Conditions in all cases: exposure time: 72 h
E13 [1] = patient-derived glioblastoma stem cells of classical subtype; experiment: surviving fraction (nuclei count normalised to DMSO); higher = more cells surviving (less toxic)
E21 [2] = patient-derived glioblastoma stem cells of mesenchymal subtype; experiment: as above
E28 [3] = patient-derived glioblastoma stem cells of classical subtype; experiment: as above
E31 [4] = patient-derived glioblastoma stem cells of proneural subtype; experiment: as above
E34 [5] = patient-derived glioblastoma stem cells of proneural subtype; experiment: as above
E57 [6] = patient-derived glioblastoma stem cells of mesenchymal subtype; experiment: as above
FT3469 [7] = normal neural stem cell line; experiment: as above
E13 [8] = experiment: phenotypic distance (Euclidean, principal components) from DMSO controls (arbitrary units); higher = stronger morphological change
E21 [9] = experiment: as above
E28 [10] = experiment: as above
E31 [11] = experiment: as above
E34 [12] = experiment: as above
E57 [13] = experiment: as above
FT3469 [14] = experiment: as above
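Wherever phenotypic distance (Euclidean, principal components) from DMSO controls is given: cell Painting imaging in 384-well plates, CellProfiler features reduced to at least 20 principal components, Euclidean distance versus same-plate DMSO vehicle wells (0.1% v/v), median over six images per well.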
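Wherever surviving fraction (nuclei count normalised to DMSO) is given: nuclei counted by high-content imaging of Hoechst-stained cells in laminin-coated 384-well plates, relative to 0.1% DMSO vehicle wells, with staurosporine as cell-death control.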

COc1cccc2c1C(=O)c1c(O)c3c(c(O)c1C2=O)C[C@@](O)(C(=O)CO)C[C@@H]3O[C@H]1C[C@H](N)[C@H](O[C@@H]2CCCCO2)[C@H](C)O1 [Pirarubicin]
Conditions	phenotypic distance	surviving fraction
E13 [1], 4.1 nM	–	0.384
E13 [1], 12.3 nM	–	0.325
E13 [1], 37 nM	–	0.263
E13 [1], 111.1 nM	–	0.0805
E13 [1], 333.3 nM	–	0.1
E13 [1], 1000 nM	–	0.0786
E13 [1], 3000 nM	–	0.0218
E13 [8], 4.1 nM	5.19	–
E13 [8], 12.3 nM	5.1	–
E13 [8], 37 nM	4.19	–
E13 [8], 111.1 nM	5.27	–
E13 [8], 333.3 nM	5.59	–
E13 [8], 1000 nM	5.06	–
E13 [8], 3000 nM	6.07	–
E21 [2], 4.1 nM	–	0.251
E21 [2], 12.3 nM	–	0.305
E21 [2], 37 nM	–	0.194
E21 [2], 111.1 nM	–	0.13
E21 [2], 333.3 nM	–	0.0649
E21 [2], 1000 nM	–	0.0703
E21 [2], 3000 nM	–	0.0202
E21 [9], 4.1 nM	5.11	–
E21 [9], 12.3 nM	7.13	–
E21 [9], 37 nM	6.25	–
E21 [9], 111.1 nM	6.76	–
E21 [9], 333.3 nM	7.24	–
E21 [9], 1000 nM	6.47	–
E21 [9], 3000 nM	9.02	–
E28 [3], 4.1 nM	–	0.322
E28 [3], 12.3 nM	–	0.276
E28 [3], 37 nM	–	0.244
E28 [3], 111.1 nM	–	0.14
E28 [3], 333.3 nM	–	0.347
E28 [3], 1000 nM	–	0.209
E28 [3], 3000 nM	–	0.0681
E28 [10], 4.1 nM	4.14	–
E28 [10], 12.3 nM	4.17	–
E28 [10], 37 nM	4.19	–
E28 [10], 111.1 nM	5.37	–
E28 [10], 333.3 nM	4.96	–
E28 [10], 1000 nM	5.04	–
E28 [10], 3000 nM	4.01	–
E31 [4], 4.1 nM	–	0.141
E31 [4], 12.3 nM	–	0.184
E31 [4], 37 nM	–	0.101
E31 [4], 111.1 nM	–	0.058
E31 [4], 333.3 nM	–	0.107
E31 [4], 1000 nM	–	0.0565
E31 [4], 3000 nM	–	0.0104
E31 [11], 4.1 nM	3.76	–
E31 [11], 12.3 nM	3.17	–
E31 [11], 37 nM	4.87	–
E31 [11], 111.1 nM	6.24	–
E31 [11], 333.3 nM	4.82	–
E31 [11], 1000 nM	7.62	–
E31 [11], 3000 nM	10.2	–
E34 [5], 4.1 nM	–	0.51
E34 [5], 12.3 nM	–	0.559
E34 [5], 37 nM	–	0.488
E34 [5], 111.1 nM	–	0.527
E34 [5], 333.3 nM	–	0.331
E34 [5], 1000 nM	–	0.488
E34 [5], 3000 nM	–	0.214
E34 [12], 4.1 nM	3.49	–
E34 [12], 12.3 nM	3.06	–
E34 [12], 37 nM	2.17	–
E34 [12], 111.1 nM	4.14	–
E34 [12], 333.3 nM	2.6	–
E34 [12], 1000 nM	3.14	–
E34 [12], 3000 nM	5.46	–
E57 [6], 4.1 nM	–	0.226
E57 [6], 12.3 nM	–	0.199
E57 [6], 37 nM	–	0.176
E57 [6], 111.1 nM	–	0.106
E57 [6], 333.3 nM	–	0.126
E57 [6], 1000 nM	–	0.122
E57 [6], 3000 nM	–	0.0208
E57 [13], 4.1 nM	7.85	–
E57 [13], 12.3 nM	8.69	–
E57 [13], 37 nM	8.43	–
E57 [13], 111.1 nM	8.17	–
E57 [13], 333.3 nM	5.64	–
E57 [13], 1000 nM	5.25	–
E57 [13], 3000 nM	7.33	–
FT3469 [7], 4.1 nM	–	0.631
FT3469 [7], 12.3 nM	–	0.549
FT3469 [7], 37 nM	–	0.534
FT3469 [7], 111.1 nM	–	0.31
FT3469 [7], 333.3 nM	–	0.381
FT3469 [7], 1000 nM	–	0.354
FT3469 [7], 3000 nM	–	0.144
FT3469 [14], 4.1 nM	2.41	–
FT3469 [14], 12.3 nM	2.29	–
FT3469 [14], 37 nM	3.24	–
FT3469 [14], 111.1 nM	6.3	–
FT3469 [14], 333.3 nM	5.37	–
FT3469 [14], 1000 nM	5.38	–
FT3469 [14], 3000 nM	7.66	–

Cc1nc2ccccn2c(=O)c1CCN1CCC(C(=O)c2ccc(F)cc2)CC1 [Pirenperone]
Conditions	phenotypic distance	surviving fraction
E13 [1], 4.1 nM	–	0.987
E13 [1], 12.3 nM	–	1.07
E13 [1], 37 nM	–	1.13
E13 [1], 111.1 nM	–	1.14
E13 [1], 333.3 nM	–	1.06
E13 [1], 1000 nM	–	1.02
E13 [1], 3000 nM	–	1.02
E13 [8], 4.1 nM	0.486	–
E13 [8], 12.3 nM	0.42	–
E13 [8], 37 nM	0.709	–
E13 [8], 111.1 nM	0.86	–
E13 [8], 333.3 nM	0.944	–
E13 [8], 1000 nM	0.709	–
E13 [8], 3000 nM	2.42	–
E21 [2], 4.1 nM	–	1.08
E21 [2], 12.3 nM	–	0.974
E21 [2], 37 nM	–	1.12
E21 [2], 111.1 nM	–	1.01
E21 [2], 333.3 nM	–	1.11
E21 [2], 1000 nM	–	1.12
E21 [2], 3000 nM	–	0.984
E21 [9], 4.1 nM	1	–
E21 [9], 12.3 nM	0.656	–
E21 [9], 37 nM	0.874	–
E21 [9], 111.1 nM	0.825	–
E21 [9], 333.3 nM	0.769	–
E21 [9], 1000 nM	0.729	–
E21 [9], 3000 nM	0.884	–
E28 [3], 4.1 nM	–	1.05
E28 [3], 12.3 nM	–	0.977
E28 [3], 37 nM	–	1.16
E28 [3], 111.1 nM	–	0.995
E28 [3], 333.3 nM	–	1.08
E28 [3], 1000 nM	–	1.07
E28 [3], 3000 nM	–	0.988
E28 [10], 4.1 nM	0.892	–
E28 [10], 12.3 nM	0.572	–
E28 [10], 37 nM	0.636	–
E28 [10], 111.1 nM	0.966	–
E28 [10], 333.3 nM	0.52	–
E28 [10], 1000 nM	0.489	–
E28 [10], 3000 nM	0.806	–
E31 [4], 4.1 nM	–	1.02
E31 [4], 12.3 nM	–	0.878
E31 [4], 37 nM	–	0.945
E31 [4], 111.1 nM	–	0.874
E31 [4], 333.3 nM	–	0.886
E31 [4], 1000 nM	–	0.857
E31 [4], 3000 nM	–	0.912
E31 [11], 4.1 nM	0.618	–
E31 [11], 12.3 nM	0.402	–
E31 [11], 37 nM	0.608	–
E31 [11], 111.1 nM	0.551	–
E31 [11], 333.3 nM	0.266	–
E31 [11], 1000 nM	0.44	–
E31 [11], 3000 nM	0.761	–
E34 [5], 4.1 nM	–	1.22
E34 [5], 12.3 nM	–	1.22
E34 [5], 37 nM	–	1.06
E34 [5], 111.1 nM	–	0.912
E34 [5], 333.3 nM	–	0.91
E34 [5], 1000 nM	–	1.01
E34 [5], 3000 nM	–	1.15
E34 [12], 4.1 nM	0.796	–
E34 [12], 12.3 nM	0.78	–
E34 [12], 37 nM	0.668	–
E34 [12], 111.1 nM	0.579	–
E34 [12], 333.3 nM	0.636	–
E34 [12], 1000 nM	0.719	–
E34 [12], 3000 nM	0.659	–
E57 [6], 4.1 nM	–	1.07
E57 [6], 12.3 nM	–	1.08
E57 [6], 37 nM	–	1.08
E57 [6], 111.1 nM	–	1.02
E57 [6], 333.3 nM	–	1.03
E57 [6], 1000 nM	–	1.03
E57 [6], 3000 nM	–	0.881
E57 [13], 4.1 nM	0.572	–
E57 [13], 12.3 nM	0.766	–
E57 [13], 37 nM	2.84	–
E57 [13], 111.1 nM	0.668	–
E57 [13], 333.3 nM	0.553	–
E57 [13], 1000 nM	0.431	–
E57 [13], 3000 nM	1.17	–
FT3469 [7], 4.1 nM	–	0.92
FT3469 [7], 12.3 nM	–	0.976
FT3469 [7], 37 nM	–	1.17
FT3469 [7], 111.1 nM	–	1.11
FT3469 [7], 333.3 nM	–	1.12
FT3469 [7], 1000 nM	–	1.05
FT3469 [7], 3000 nM	–	1.19
FT3469 [14], 4.1 nM	0.618	–
FT3469 [14], 12.3 nM	0.837	–
FT3469 [14], 37 nM	0.619	–
FT3469 [14], 111.1 nM	0.898	–
FT3469 [14], 333.3 nM	0.764	–
FT3469 [14], 1000 nM	0.995	–
FT3469 [14], 3000 nM	1.03	–
